Test results reported in ChEMBL document CHEMBL1201862, “PubChem BioAssay data set” (2004).
Active and inactive are the calls of the source.

Legend:
[1] = growth suppression of PTEN-null colon cells, dose response, cell-based, HCT116 PTEN knockout (AID 1047); format: functional;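 note: HCT116 colon tumor cells with PTEN knocked out; cells exposed to compound for 60 hours before readout; potency for loss of cell viability measured by luminescence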
[2] = growth suppression of beta-catenin-knockout colon cells, dose response, cell-based, HCT116, human colon tumor (AID 1045); format: functional;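 note: HCT116 colon tumor cells with beta catenin knocked out; cells exposed to compound for 60 hours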
[3] = target: Cytochrome P450 3A4 (Homo sapiens, UniProt P08684);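 note: CYP3A4 tested as one member of a cytochrome P450 panel screen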
Sequence of Cytochrome P450 3A4 (P08684 whole entry): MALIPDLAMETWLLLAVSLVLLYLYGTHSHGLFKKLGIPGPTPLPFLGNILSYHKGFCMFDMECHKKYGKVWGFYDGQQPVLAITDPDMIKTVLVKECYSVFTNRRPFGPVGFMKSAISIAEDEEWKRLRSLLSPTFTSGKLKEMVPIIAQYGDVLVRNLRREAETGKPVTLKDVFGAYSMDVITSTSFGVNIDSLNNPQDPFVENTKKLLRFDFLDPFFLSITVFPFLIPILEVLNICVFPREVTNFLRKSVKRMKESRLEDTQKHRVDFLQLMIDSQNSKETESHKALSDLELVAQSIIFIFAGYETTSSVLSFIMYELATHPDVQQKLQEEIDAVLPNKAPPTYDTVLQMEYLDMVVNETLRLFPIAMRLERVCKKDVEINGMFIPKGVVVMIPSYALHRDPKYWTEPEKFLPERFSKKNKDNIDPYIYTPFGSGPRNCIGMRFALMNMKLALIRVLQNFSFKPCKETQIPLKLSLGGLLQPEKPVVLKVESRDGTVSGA

[4] = target: Cytochrome P450 2D6 (Homo sapiens, UniProt P10635);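 note: CYP2D6 member of a cytochrome P450 panel assay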
Sequence of Cytochrome P450 2D6 (P10635 whole entry): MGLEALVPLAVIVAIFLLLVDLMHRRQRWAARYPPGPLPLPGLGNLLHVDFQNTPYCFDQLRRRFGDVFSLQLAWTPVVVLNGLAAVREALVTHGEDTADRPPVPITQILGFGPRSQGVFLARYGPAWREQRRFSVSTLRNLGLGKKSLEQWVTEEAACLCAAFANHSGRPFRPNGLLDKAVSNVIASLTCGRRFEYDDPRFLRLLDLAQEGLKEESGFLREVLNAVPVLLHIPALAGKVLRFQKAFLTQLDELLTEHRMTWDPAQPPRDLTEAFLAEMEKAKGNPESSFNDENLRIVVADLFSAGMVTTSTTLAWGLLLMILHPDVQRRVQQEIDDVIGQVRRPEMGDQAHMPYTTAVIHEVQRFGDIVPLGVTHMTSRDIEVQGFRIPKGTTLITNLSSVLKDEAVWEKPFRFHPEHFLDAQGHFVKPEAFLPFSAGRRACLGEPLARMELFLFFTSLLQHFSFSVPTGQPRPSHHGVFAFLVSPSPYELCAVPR

[5] = target: T1, Leucine aminopeptidase (Plasmodium falciparum 3D7, UniProt Q8IL11); test: P. falciparum M17LAP inhibitors, primary screen, biochemical, fluorogenic H-Leu-NHMec substrate, 1536-well (AID 1619); format: functional
T1 sequence (Q8IL11 whole entry): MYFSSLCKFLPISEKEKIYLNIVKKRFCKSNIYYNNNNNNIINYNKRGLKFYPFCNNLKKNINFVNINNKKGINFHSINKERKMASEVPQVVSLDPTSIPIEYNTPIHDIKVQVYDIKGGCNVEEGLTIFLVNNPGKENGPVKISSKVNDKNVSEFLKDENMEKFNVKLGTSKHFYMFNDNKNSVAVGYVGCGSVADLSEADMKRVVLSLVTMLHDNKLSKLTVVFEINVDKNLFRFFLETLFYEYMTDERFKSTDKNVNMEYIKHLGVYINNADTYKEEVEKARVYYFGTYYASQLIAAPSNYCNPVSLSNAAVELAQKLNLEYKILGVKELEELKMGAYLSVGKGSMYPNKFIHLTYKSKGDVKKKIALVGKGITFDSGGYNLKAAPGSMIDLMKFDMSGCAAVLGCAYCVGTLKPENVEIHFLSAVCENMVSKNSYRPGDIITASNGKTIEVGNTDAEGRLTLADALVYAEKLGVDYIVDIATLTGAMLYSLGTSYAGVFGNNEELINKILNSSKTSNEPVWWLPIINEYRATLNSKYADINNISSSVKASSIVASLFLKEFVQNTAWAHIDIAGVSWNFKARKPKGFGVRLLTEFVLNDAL

[6] = tested on: BJ; test: cells; format: functional, cell-based; details: Homo sapiens
[7] = tested on: BJ; test: cytotoxicity toward BJ-TERT fibroblasts, dose response, cell-based, RAS-independent, luminescence (AID 1933); format: functional; details: Homo sapiens
[8] = cytotoxicity toward DRD oncogenic fibroblasts, dose response, cell-based, non-viral oncogenic, luminescence (AID 1934); format: functional; details: Homo sapiens
[9] = tested on: BJ; test: cytotoxicity toward BJ-TERT-LT-ST fibroblasts, dose response, cell-based, RAS-independent, luminescence (AID 1935); format: functional; details: Homo sapiens;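 note: BJ fibroblasts immortalized with TERT plus LT and ST oncogenes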
[10] = C. albicans growth with fluconazole, confirmation, fluorescence, retest (AID 2467); format: functional, cell-based
[11] = NIH-3T3 fibroblast cytotoxicity, dose response, cytotoxicity control, cell-based, fluorescence, Alamar Blue, secondary assay (AID 2327); format: functional;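 note: NIH-3T3 mouse fibroblasts cultured with fluconazole at 8 µg/mL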
[12] = target: FAD-linked sulfhydryl oxidase ALR (Homo sapiens, UniProt P55789); test: inhibitors of human ALR sulfhydryl oxidase, dose response, biochemical, H2O2 detection, luminescence, cherry-pick (AID 493248)
Sequence of FAD-linked sulfhydryl oxidase ALR (P55789 whole entry, the tested form may be a part): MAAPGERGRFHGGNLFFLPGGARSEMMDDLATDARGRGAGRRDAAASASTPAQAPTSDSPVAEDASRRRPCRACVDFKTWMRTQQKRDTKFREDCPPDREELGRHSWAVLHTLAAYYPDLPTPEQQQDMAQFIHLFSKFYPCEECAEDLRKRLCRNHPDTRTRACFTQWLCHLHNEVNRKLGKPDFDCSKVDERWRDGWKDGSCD

[13] = inhibitors of clade B AD8 Env fusion, dose response, cell-based, cherry-pick (AID 652062); format: functional;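 note: luciferase signal from cell-cell fusion driven by HIV-1 clade B AD8 Env; potency is for inhibitors of fusion seen as a drop in luminescence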
[14] = target: Paired box protein Pax-8 (Homo sapiens, UniProt Q06710); test: inhibitors of PAX8-driven TPO luciferase reporter, dose response, RMG-I cells, cherry-pick (AID 687027); format: functional, cell-based;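 note: luciferase reporter driven by Pax8 target thyroperoxidase promoter measured by SteadyGlo luminescence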
Sequence of Paired box protein Pax-8 (Q06710 whole entry): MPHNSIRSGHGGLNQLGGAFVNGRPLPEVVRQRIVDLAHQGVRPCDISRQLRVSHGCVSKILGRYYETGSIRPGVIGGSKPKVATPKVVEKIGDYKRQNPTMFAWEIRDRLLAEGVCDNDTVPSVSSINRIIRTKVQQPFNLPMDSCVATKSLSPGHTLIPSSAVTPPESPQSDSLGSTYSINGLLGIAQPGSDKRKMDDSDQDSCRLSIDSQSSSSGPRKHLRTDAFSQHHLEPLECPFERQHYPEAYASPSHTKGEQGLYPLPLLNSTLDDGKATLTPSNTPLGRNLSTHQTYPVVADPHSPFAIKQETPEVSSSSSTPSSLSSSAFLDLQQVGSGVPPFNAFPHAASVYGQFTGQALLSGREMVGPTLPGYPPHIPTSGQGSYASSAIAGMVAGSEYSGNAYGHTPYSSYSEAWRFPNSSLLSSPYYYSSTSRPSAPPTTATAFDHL

[15] = target: T2, Streptokinase A (Streptococcus pyogenes serotype M1, UniProt P10520); test: S. pyogenes streptokinase expression inhibitors, potency, dose response, plasminogen activation absorbance, OD405 (AID 1914); format: functional, Streptococcus pyogenes M1 GAS;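 note: secreted streptokinase activity via plasminogen activation per viability signal from cell pellet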
T2 sequence (P10520 whole entry): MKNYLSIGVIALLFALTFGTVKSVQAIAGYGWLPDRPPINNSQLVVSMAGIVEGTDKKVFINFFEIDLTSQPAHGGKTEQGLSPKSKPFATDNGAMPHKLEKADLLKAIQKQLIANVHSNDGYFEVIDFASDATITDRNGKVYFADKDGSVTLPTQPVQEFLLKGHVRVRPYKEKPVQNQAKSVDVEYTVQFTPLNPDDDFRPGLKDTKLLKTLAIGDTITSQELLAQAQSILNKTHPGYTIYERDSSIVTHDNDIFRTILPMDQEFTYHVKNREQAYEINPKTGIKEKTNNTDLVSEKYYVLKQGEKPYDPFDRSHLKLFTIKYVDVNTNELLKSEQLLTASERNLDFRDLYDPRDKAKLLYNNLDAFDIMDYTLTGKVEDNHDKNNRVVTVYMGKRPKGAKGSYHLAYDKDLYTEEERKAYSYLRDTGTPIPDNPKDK

[16] = tested on: Streptococcus sp. 'group A'; test: growth inhibition of control SK(-) GAS strain, dose response, counter-screen for streptokinase expression inhibitor project, luminescence, kanamycin, BacTiterGlo, confirmation (AID 1900); format: functional, organism-based
[17] = tested on: Streptococcus; test: Group A Streptococcus viability loss, dose response, counter-screen for streptokinase expression inhibitor project, luminescence, BacTiterGlo (AID 1915); format: functional, organism-based;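 note: potency for reduction of bacterial viability or growth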

Cc1cccc(NC(=O)Cn2cnc3c(cnn3-c3ccc(F)cc3)c2=O)c1C
EC50 [1]: 6.93 µM (active)
EC50 [2]: 14.2 µM (active)

Cc1ccc(C(=O)/C=C/c2c[nH]c3ccccc23)cc1
AC50 [3]: 25.1 µM (inconclusive)
AC50 [4]: 22.4 µM (inconclusive)

c1ccc(-c2nnc(Sc3ncnc4c3cnn4-c3ccccc3)[nH]2)cc1
IC50 [5]: 64.8 µM (active)

CC1SCC(=O)N(CC(=O)Nc2ccc3c(c2)OCO3)C1=O (stereo not drawn)
IC50 [5]: 29.4 µM (active)

CN(NC(=O)c1ccccc1)c1nc2ccccc2nc1C(F)(F)F
EC50 [6]: 26.9 µM (active)
EC50 [7]: 18.4 µM (active)
EC50 [8]: 16.5 µM (active)
EC50 [9]: 17.3 µM (active)

CC(=O)c1ncnn1CC(=O)c1ccc(Cl)cc1Cl
EC50 [10]: 1.37 µM (active)
EC50 [11]: 21.9 µM (inconclusive)

CC(C)CN1CC[C@@]2(CCCN(C(=O)c3cnccn3)C2)C1
AC50 [3]: 15.8 µM (inconclusive)

CCCC(O)(CCC)C(=O)NNc1ccc(C)cc1
EC50 [10]: > 38 µM (not active)
EC50 [11]: > 160 µM (inconclusive)

CCOC(=O)c1sc(NC(=O)c2cc(-c3ccc(C)cc3)nc3ccccc23)c(C#N)c1C
EC50 [1]: 9.45 µM (active)
EC50 [2]: 10.5 µM (active)

O=C(CSc1ncccc1C(=O)O)NCCC1=CCCCC1
IC50 [5]: 29.2 µM (active)

Nc1nnc(Nc2ccc(Cl)cc2)[nH]1
AC50 [12]: 4.22 µM (active)
IC50 [5]: 6.6 µM (active)

COc1ccc(C(O)c2nc3ccccc3n2C)cc1OC (stereo not drawn)
AC50 [13]: 3.4 µM (active)

CO[C@@H]1/C=C\CC(=O)N[C@@H](C)C(=O)OC[C@H](NS(=O)(=O)c2ccc(C)cc2)[C@H](C)/C=C\CC(=O)OC[C@H]1C
AC50 [3]: 3.98 µM (inconclusive)

O=C(N/N=C/c1ccsc1)c1cc(-c2cccs2)nc2ccccc12
AC50 [14]: 51.8 µM (active)

O=C(N/N=C/c1ccco1)c1cc(-c2ccncc2)nc2ccccc12
EC50 [6]: 60.7 µM (active)
EC50 [7]: 15.2 µM (active)
EC50 [8]: 23.3 µM (active)
EC50 [9]: > 75 µM (not active)

N#C[C@H]1[C@H](c2ccc(C#CC3CCCCC3)cc2)[C@H](CO)N1C(=O)Nc1ccc(F)cc1
AC50 [14]: 20.8 µM (active)

C[C@@H]1CCCCO[C@@H](CN(C)Cc2ccc(C(F)(F)F)cc2)[C@@H](C)CN([C@@H](C)CO)C(=O)c2cc(NS(=O)(=O)c3ccc(F)cc3)ccc2O1
AC50 [14]: 8.7 µM (active)

Cc1ccc(S(=O)(=O)N[C@@H]2C=C[C@@H](CC(=O)N3CCC(Cc4ccccc4)CC3)O[C@@H]2CO)cc1
AC50 [14]: 13.3 µM (active)

Cc1ccc(S(=O)(=O)Nc2ccc3c(c2)C(=O)N([C@@H](C)CO)C[C@@H](C)[C@H](CN(C)S(=O)(=O)c2ccc(Cl)cc2)OCCCC[C@@H](C)O3)cc1
AC50 [14]: 4.47 µM (active)

C/C(N)=C(/C#N)C(=O)COC(=O)c1cc(-c2ccc(Br)cc2)nc2ccccc12
EC50 [15]: 4.43 µM (active)
EC50 [1]: 25 µM (active)
EC50 [16]: 11.9 µM (active)
EC50 [17]: 18.7 µM (active)
EC50 [2]: 24.9 µM (active)

C/C(=N\NC(=O)C1CCCC1)c1ccc(Cl)c(Cl)c1
EC50 [10]: > 38 µM (not active)
EC50 [11]: > 150 µM (inactive)
